US9597407B2, “Targeted antimicrobial moieties” (C3 Jian, Inc., priority 2009, dated 2017)
“Also recorded” adds a separate entry of the source. Ends that are not written are not given here.

Tests used:
microorganisms [1] = assay: Morphology, biofilm and growth disruption by peptides (Table 5); format: cell-based; parameters: key: A: Peptide aggregates; B: Less hyphal formation; Clumps; Diffuse clumps and small polyps; F: Diffuse growth; H: Thin; I: Growth inhibition; Microcolony formation; Rippled; Small polyps; Thick; W: Halo formation on top, microlonies on bottom
Excerpt: In certain embodiments peptides that induce alterations in phenotype or other biological activities can also be used as antimicrobial effector moieties.

bacteria = assay: Binding of targeting peptides to microorganisms (Table 3); conditions: peptide binding in aqueous buffers that varied depending on peptide solubility; preferably 1x PBS
microorganisms [2] = assay: Peptide activities: binding, antimicrobial, growth or phenotype altering (Table 8)
Excerpt: In certain embodiments, peptides described herein can have multiple activities. Thus for example, a peptide can have both binding/targeting activity and antimicrobial activity. Such peptides can be used, e.g., in a chimeric construct, for any or all of these properties. Thus, for example, a peptide designated “B” in Table 8 can be used as a targeting peptide. If it is also designated G or M it can also be used for antimicrobial activity.

Substance | Organism, effect (morphology, biofilm and growth disruption) (microorganisms [1]; S. pneumoniae) | Target(s) (microorganisms bound by the targeting peptide) (bacteria) | Activities (microorganisms [2]) | Organism, effect (morphology, biofilm and growth disruption) (microorganisms [1]; C. jejuni) | Organism, effect (morphology, biofilm and growth disruption) (microorganisms [1]; E. faecalis) | Organism, effect (morphology, biofilm and growth disruption) (microorganisms [1]; MRSA) | Organism, effect (morphology, biofilm and growth disruption) (microorganisms [1]; E. coli) | Organism, effect (morphology, biofilm and growth disruption) (microorganisms [1]; S. epidermidis)
PF-466 (VRKSDQ; Peptide with targeting and/or antimicrobial activity) | S. pneumoniae (H) | MRSA and C. jeikeium and C. jejuni | G B |  |  |  |  | 
PF-467 (YYKDYFKEI; Peptide with targeting and/or antimicrobial activity) | S. pneumoniae (H) | MRSA and E. faecalis and C. jeikeium and C. jejuni | G B |  |  |  |  | 
PF-470 (PYSDSYATRPHWEQHRAR; Peptide with targeting and/or antimicrobial activity) |  | M. luteus and E. coli and MRSA and E. faecalis and C. jeikeium and C. jejuni | G B | C. jejuni (A) | E. faecalis (A) |  |  | 
PF-472 (MHISHLLDEVEQTEREKAVNVLENMNGNVI; Peptide with targeting and/or antimicrobial activity) | S. pneumoniae (R) | S. epidermidis and E. coli and P. aeruginosa and C. albicans and MRSA and S. pneumoniae and E. faecalis and C. jeikeium | G B | C. jejuni (R) | E. faecalis (A) | MRSA (C) |  | 
PF-476 (WADAQYKLCENCSE; Peptide with targeting and/or antimicrobial activity) | S. pneumoniae (H) | M. luteus; also recorded: P. mirabilis; also recorded: C. albicans; also recorded: S. pneumoniae; also recorded: E. faecalis; also recorded: C. jeikeium; also recorded: C. jejuni | G B |  |  |  |  | 
PF-484 (HKKDIRKQVFKN; Peptide with targeting and/or antimicrobial activity) |  | S. epidermidis; also recorded: M. luteus; also recorded: P. mirabilis; also recorded: E. coli; also recorded: E. faecalis; also recorded: C. jeikeium; also recorded: C. jejuni | G B |  | E. faecalis (A) |  |  | 
PF-513 (SNGVGLGVGIGSGIRF-NH2) | S. pneumoniae (M) | C. albicans | G B |  |  |  |  | 
PF-514 (QRFYKLFYHIDLTNEQALKLFQVK; Peptide with targeting and/or antimicrobial activity) | S. pneumoniae (M) | S. epidermidis and E. coli and P. aeruginosa and C. albicans and MRSA and S. pneumoniae and E. faecalis and C. jeikeium | G B |  | E. faecalis (C) |  | E. coli (R) | S. epidermidis (C)
PF-515 (DKSTQDKDIKQAKLLAQELGL-NH2) | S. pneumoniae (H) | S. epidermidis; also recorded: C. albicans; also recorded: S. pneumoniae; also recorded: C. jeikeium | G B |  |  |  |  | 
PF-517 (VKPTMTASLISTVC; Peptide with targeting and/or antimicrobial activity) | S. pneumoniae (M) | C. jejuni | G B |  |  |  |  | 
